Test: Study HDP-CDV-201: safety and tolerability (adverse events, laboratory abnormalities, discontinuations)
Format: in vivo, human (adult allogeneic HSCT recipients)
Experimental: Clinical Studies of HDP-CDV were performed and described in detail in the following Examples. For example, HDP-CDV-201 is a placebo-controlled, dose-escalating trial in HSCT CMV (R+) recipients, evaluating the ability of HDP-CDV to prevent or control CMV infection was carried out. Five cohorts were established in which participants or subjects received either placebo or the HDP-CDV orally, in doses ranging from 40 mg weekly (QW) to 200 mg twice weekly (BIW). Subjects who were post-HSCT were enrolled at the time of engraftment and randomized to HDP-CDV or placebo (3 to 1 ratio) and received blinded therapy until approximately 100 day post-transplantation. HDP-CDV doses were 40 mg QW, 100 mg QW, 200 mg QW, 200 mg BIW and 100 mg BIW. Escalation to the next dose was decided by the data monitoring committee after review of the safety data from the previous Cohort. Subjects who developed CMV disease or CMV infection requiring pre-emptive therapy with local standard of care were discontinued from blinded therapy and followed for 4 weeks. Subjects who completed treatment with blinded therapy were followed for 8 weeks post-therapy.
Data from Study HDP-CDV-201 also provided characterization of the safety and tolerability profile of HDP-CDV when administered for the prevention or control of CMV infection in high risk (R^+) post-HSCT adult subjects.
The Safety population (SAFETY) included all randomized subjects who took at least one dose of study treatment. This population was used to summarize safety outcomes based on the treatment actually received, in cases where a subject was treated contrary to the randomization schedule.
The safety and tolerability profile of HDP-CDV, including subject demographics and Baseline characteristics; the AE profile; and laboratory abnormalities of interest were analyzed in the cohorts followed in this investigation.
Subjects completing the treatment period received a full course of study medication; those completing the entire study attended visits through 8 weeks of follow up. Subjects who discontinued treatment may have done so for protocol specified reasons (e.g. development of clinically significant CMV infection requiring preemptive treatment with excluded anti-CMV medications) or for other reasons (e.g., withdrawal, adverse events, loss to follow-up). The disposition of subjects in Study HDP-CDV-201 during the double-blind, placebo-controlled treatment period (through Week 11) is listed by dosing Cohort in TABLE 23.
Adverse events were examined by severity to ensure that all safety signals were identified in this study population. Because of the frequency of events in HSCT recipients, particular attention was given to evaluation of Grade 3 […], 4 (severe), and 5 (fatal) adverse events.
Only those preferred terms for which at least one Grade 3 or higher event was experienced in any treatment group are listed. Cytomegalovirus-related AEs are excluded from this analysis.
HDP-CDV is a lipid conjugate of CDV. Because CDV is known to have adverse effects on renal function and bone marrow, decreased GFR and persistent neutropenia were identified as AEs of special interest. Key renal and hematological (TABLE 30) laboratory parameters were measured and listed below by Study HDP-CDV-201 treatment groups. TABLE 30 includes abnormal levels of serum creatinine, neutrophils, platelets, WBCs, and hemoglobin and includes data at Screening and during the treatment period.
A common metric for unit based dosing of medications is by weight (mg/kg). When the distribution of weights was examined for all subjects participating in the study, the median was 78 kg and the lower 25th percentile weight was approximately 65 kg, which translates to a cut-off of ˜3 mg/kg for a 200 mg total weekly dose. Based upon this approach, a cut-off of 3 mg/kg was used to assess the frequency of diarrhea and associated GI AEs reported for the subjects in Cohorts 3 or 4a (TABLE 40).

CCCCCCCCCCCCCCCCOCCCOP(=O)(O)COC(CO)Cn1ccc(N)nc1=O (stereo not drawn) [HDP-CDV]
17 (34.0%): TEAE Nausea, Frequency (100 mg BIW)
7 (14.0%): TEAE Thrombocytopenia, Frequency (100 mg BIW)
2 (4.0%): TEAE Hypokalaemia, Grade 3 (100 mg BIW) | TEAE LFT Abnormal, Frequency (100 mg BIW) | TEAE Leukocytosis, Frequency (100 mg BIW) | TEAE Nausea, Grade 3 (100 mg BIW) | TEAE Neutropenia, Grade 2 (100 mg BIW) | TEAE Neutropenia, Grade 4 (100 mg BIW) | TEAE Staphylococcal Bacteremia, Grade 2 (100 mg BIW) | TEAE Thrombocytopenia, Grade 4 (100 mg BIW) | TEAE Vomiting, Grade 3 (100 mg BIW)
4 (8.0%) Subject n (%): Discontinuation: Death (100 mg BIW, active treatment period)
6 (12.0%): TEAE Staphylococcal Bacteremia, Frequency (100 mg BIW)
4 (8.0%): TEAE Pyrexia, Grade 2 (100 mg BIW)
7 (25.5%): TEAE Acute GVHD, Frequency (100 mg QW)
2 (7.4%): TEAE Abdominal pain, Frequency (100 mg QW) | TEAE Back Pain, Frequency (100 mg QW) | TEAE Decreased appetite, Grade 2 (100 mg QW)
8 (29.6%): TEAE Diarrhea, Frequency (100 mg QW)
0: TEAE Hypokalaemia, Grade 4 (100 mg BIW) | TEAE Hypokalaemia, Grade 5 (100 mg BIW) | TEAE Hyponatraemia, Grade 2 (100 mg BIW) | TEAE Hyponatraemia, Grade 3 (100 mg BIW) | TEAE Hyponatraemia, Grade 4 (100 mg BIW) | TEAE Hyponatraemia, Grade 5 (100 mg BIW) | TEAE LFT Abnormal, Grade 3 (100 mg BIW) | TEAE LFT Abnormal, Grade 4 (100 mg BIW) | TEAE LFT Abnormal, Grade 5 (100 mg BIW) | TEAE Leukocytosis, Grade 2 (100 mg BIW) | TEAE Leukocytosis, Grade 4 (100 mg BIW) | TEAE Leukocytosis, Grade 5 (100 mg BIW) | TEAE Nausea, Grade 4 (100 mg BIW) | TEAE Nausea, Grade 5 (100 mg BIW) | TEAE Neutropenia, Grade 5 (100 mg BIW) | TEAE Pneumonia, Grade 4 (100 mg BIW) | TEAE Pyrexia, Grade 4 (100 mg BIW) | TEAE Pyrexia, Grade 5 (100 mg BIW) | TEAE Renal Failure, Grade 5 (100 mg BIW) | TEAE Staphylococcal Bacteremia, Grade 4 (100 mg BIW) | TEAE Staphylococcal Bacteremia, Grade 5 (100 mg BIW) | TEAE Thrombocytopenia, Grade 5 (100 mg BIW) | TEAE Vomiting, Grade 4 (100 mg BIW) | TEAE Vomiting, Grade 5 (100 mg BIW) | TEAE ALT increased, Grade 2 (100 mg QW) | TEAE ALT increased, Grade 4 (100 mg QW) | TEAE ALT increased, Grade 5 (100 mg QW) | TEAE AML, Recurrent, Frequency (100 mg QW) | TEAE AML, Recurrent, Grade 2 (100 mg QW) | TEAE AML, Recurrent, Grade 3 (100 mg QW) | TEAE AML, Recurrent, Grade 4 (100 mg QW) | TEAE AML, Recurrent, Grade 5 (100 mg QW) | TEAE AST increased, Grade 3 (100 mg QW) | TEAE AST increased, Grade 4 (100 mg QW) | TEAE AST increased, Grade 5 (100 mg QW) | TEAE Abdominal pain, Grade 2 (100 mg QW) | TEAE Abdominal pain, Grade 4 (100 mg QW) | TEAE Abdominal pain, Grade 5 (100 mg QW) | TEAE Arthralgias, Grade 2 (100 mg QW) | TEAE Arthralgias, Grade 3 (100 mg QW) | TEAE Arthralgias, Grade 4 (100 mg QW) | TEAE Arthralgias, Grade 5 (100 mg QW) | TEAE Back Pain, Grade 2 (100 mg QW) | TEAE Back Pain, Grade 3 (100 mg QW) | TEAE Back Pain, Grade 4 (100 mg QW) | TEAE Back Pain, Grade 5 (100 mg QW) | TEAE Decreased appetite, Grade 3 (100 mg QW) | TEAE Decreased appetite, Grade 4 (100 mg QW) | TEAE Decreased appetite, Grade 5 (100 mg QW) | TEAE Diarrhea, Grade 3 (100 mg QW) | TEAE Diarrhea, Grade 4 (100 mg QW) | TEAE Diarrhea, Grade 5 (100 mg QW) | TEAE Fatigue, Grade 2 (100 mg QW) | TEAE Fatigue, Grade 3 (100 mg QW) | TEAE Fatigue, Grade 4 (100 mg QW) | TEAE Fatigue, Grade 5 (100 mg QW)
8 (16.0%) Subject n (%): Discontinuation: Adverse event (100 mg BIW, active treatment period through Week 11)
5 (18.5%): TEAE Decreased appetite, Frequency (100 mg QW)
22 (44.0%): TEAE Vomiting, Frequency (100 mg BIW)
5 (10.0%): TEAE Neutropenia, Grade 3 (100 mg BIW) | TEAE Pneumonia, Frequency (100 mg BIW) | TEAE Renal Failure, Frequency (100 mg BIW)
26 (52.0%): Subjects Reporting Diarrhea as an AE (100 mg BIW, n = 50)
3 (11.1%): TEAE Arthralgias, Frequency (100 mg QW) | TEAE Diarrhea, Grade 2 (100 mg QW) | TEAE Fatigue, Frequency (100 mg QW)
4 (14.8%): TEAE Acute GVHD, Grade 2 (100 mg QW)
3 (6.0%): TEAE Pneumonia, Grade 3 (100 mg BIW) | TEAE Staphylococcal Bacteremia, Grade 3 (100 mg BIW)
1 (3.7%): TEAE ALT increased, Frequency (100 mg QW) | TEAE ALT increased, Grade 3 (100 mg QW) | TEAE AST increased, Frequency (100 mg QW) | TEAE AST increased, Grade 2 (100 mg QW) | TEAE Abdominal pain, Grade 3 (100 mg QW)
1 (2%): TEAE Pyrexia, Grade 3 (100 mg BIW)
9 (18.0%): TEAE Nausea, Grade 2 (100 mg BIW)
8 (16.0%): TEAE Vomiting, Grade 2 (100 mg BIW)
10 (20.0%): TEAE Neutropenia, Frequency (100 mg BIW) | TEAE Pyrexia, Frequency (100 mg BIW)
17 out of 50: subjects who interrupted HDP-CDV due to an adverse event (100 mg BIW Cohort)
2 (7.3%): TEAE Acute GVHD, Grade 3 (100 mg QW)
72%: subjects requiring treatment with steroids during the study (100 mg BIW)
1 (2.0%): TEAE Hyponatraemia, Frequency (100 mg BIW) | TEAE LFT Abnormal, Grade 2 (100 mg BIW) | TEAE Leukocytosis, Grade 3 (100 mg BIW) | TEAE Pneumonia, Grade 2 (100 mg BIW) | TEAE Pneumonia, Grade 5 (100 mg BIW) | TEAE Renal Failure, Grade 2 (100 mg BIW) | TEAE Renal Failure, Grade 3 (100 mg BIW) | TEAE Renal Failure, Grade 4 (100 mg BIW) | TEAE Thrombocytopenia, Grade 2 (100 mg BIW) | TEAE Thrombocytopenia, Grade 3 (100 mg BIW)

Source: patent US20140303092A1 (CHIMERIX, INC., priority 2011, published 2014)
